PubChem BioAssay (NCI)
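1) Cells in 96-well plates. 2) Compound, 48 h, 5 concentrations. 3) Linear interpolation between surrounding doses. 4) Unreached endpoint = highest concentration. TGI denotes the concentration required for complete inhibition of growth.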

Tests used:
Test in all cases: DTP human tumour cell line panel, 48 h
MDA-MB-435 = tested on: MDA-MB-435
OVCAR-4 ovarian = tested on: OVCAR-4 ovarian
COLO 205 colon = tested on: COLO 205 colon
PC-3 prostate = tested on: PC-3 prostate
T-47D breast = tested on: T-47D breast
CAKI-1 renal = tested on: CAKI-1 renal
A498 renal = tested on: A498 renal
LOX IMVI melanoma = tested on: LOX IMVI melanoma
OVCAR-3 ovarian = tested on: OVCAR-3 ovarian
SN12C renal = tested on: SN12C renal
RXF 393 renal = tested on: RXF 393 renal
DU-145 prostate = tested on: DU-145 prostate
OVCAR-8 ovarian = tested on: OVCAR-8 ovarian
NCI-H460 lung = tested on: NCI-H460 lung
HCC-2998 colon = tested on: HCC-2998 colon
MOLT-4 leukemia = tested on: MOLT-4 leukemia
SF-295 CNS = tested on: SF-295 CNS
SK-MEL-5 melanoma = tested on: SK-MEL-5 melanoma
UO-31 renal = tested on: UO-31 renal
HOP-92 NSCLC = tested on: HOP-92 NSCLC
SNB-19 CNS = tested on: SNB-19 CNS
IGROV1 ovarian = tested on: IGROV1 ovarian
SR leukemia = tested on: SR leukemia
HOP-62 NSCLC = tested on: HOP-62 NSCLC
UACC-62 melanoma = tested on: UACC-62 melanoma
U251 CNS = tested on: U251 CNS
SW-620 colon = tested on: SW-620 colon
NCI-H23 lung = tested on: NCI-H23 lung
HCT-15 colon = tested on: HCT-15 colon
K-562 leukemia = tested on: K-562 leukemia
SK-MEL-28 melanoma = tested on: SK-MEL-28 melanoma
EKVX NSCLC = tested on: EKVX NSCLC
RPMI-8226 leukemia = tested on: RPMI-8226 leukemia
ACHN renal = tested on: ACHN renal
UACC-257 melanoma = tested on: UACC-257 melanoma
M14 melanoma = tested on: M14 melanoma
HCT-116 colon = tested on: HCT-116 colon
SK-MEL-2 melanoma = tested on: SK-MEL-2 melanoma
KM12 colon = tested on: KM12 colon
A549 NSCLC = tested on: A549 NSCLC
MCF7 breast = tested on: MCF7 breast
BT-549 breast = tested on: BT-549 breast
HT29 colon = tested on: HT29 colon
MDA-N = tested on: MDA-N
786-0 renal = tested on: 786-0 renal
NCI/ADR-RES ovarian = tested on: NCI/ADR-RES ovarian
NCI-H226 lung = tested on: NCI-H226 lung
OVCAR-5 ovarian = tested on: OVCAR-5 ovarian
SNB-75 CNS = tested on: SNB-75 CNS
MDA-MB-231 breast = tested on: MDA-MB-231 breast
SF-539 CNS = tested on: SF-539 CNS
CCRF-CEM leukemia = tested on: CCRF-CEM leukemia
MALME-3M melanoma = tested on: MALME-3M melanoma
NCI-H522 lung = tested on: NCI-H522 lung
SF-268 CNS = tested on: SF-268 CNS
HL-60(TB) leukemia = tested on: HL-60(TB) leukemia
TK-10 renal = tested on: TK-10 renal
SK-OV-3 ovarian = tested on: SK-OV-3 ovarian

Work on Cc1c(C)c2ccc(O)cc2[nH]c1=O yielded a TGI (MDA-MB-435) of over 100 µM, a TGI (OVCAR-4 ovarian) of over 100 µM and a TGI (COLO 205 colon) of over 100 µM. It also gave a TGI (PC-3 prostate) of over 100 µM, a TGI (T-47D breast) of over 100 µM and a TGI (CAKI-1 renal) of over 100 µM. For the same compound, the TGI (A498 renal) was over 100 µM, the TGI (LOX IMVI melanoma) was over 100 µM and the TGI (OVCAR-3 ovarian) was over 100 µM. For the same compound, the TGI (SN12C renal) was over 100 µM, the TGI (RXF 393 renal) was over 100 µM and the TGI (DU-145 prostate) was over 100 µM. It also gave a TGI (OVCAR-8 ovarian) of over 100 µM, a TGI (NCI-H460 lung) of over 100 µM and a TGI (HCC-2998 colon) of over 100 µM. For the same compound, the TGI (MOLT-4 leukemia) was over 100 µM, the TGI (SF-295 CNS) was over 100 µM and the TGI (SK-MEL-5 melanoma) was over 100 µM. For the same compound, the TGI (UO-31 renal) was over 100 µM, the TGI (HOP-92 NSCLC) was over 100 µM and the TGI (SNB-19 CNS) was over 100 µM. It also gave a TGI (IGROV1 ovarian) of over 100 µM, a TGI (SR leukemia) of over 100 µM and a TGI (HOP-62 NSCLC) of over 100 µM. For the same compound, the TGI (UACC-62 melanoma) was over 100 µM, the TGI (U251 CNS) was over 100 µM and the TGI (SW-620 colon) was over 100 µM. It also gave a TGI (NCI-H23 lung) of over 100 µM, a TGI (HCT-15 colon) of over 100 µM and a TGI (K-562 leukemia) of over 100 µM. For the same compound, the TGI (SK-MEL-28 melanoma) was over 100 µM, the TGI (EKVX NSCLC) was over 100 µM and the TGI (RPMI-8226 leukemia) was over 100 µM. For the same compound, the TGI (ACHN renal) was over 100 µM, the TGI (UACC-257 melanoma) was over 100 µM and the TGI (M14 melanoma) was over 100 µM. The TGI (HCT-116 colon) was over 100 µM, the TGI (SK-MEL-2 melanoma) was over 100 µM and the TGI (KM12 colon) was over 100 µM. For the same compound, the TGI (A549 NSCLC) was over 100 µM, the TGI (MCF7 breast) was over 100 µM and the TGI (BT-549 breast) was over 100 µM. It also gave a TGI (HT29 colon) of over 100 µM, a TGI (MDA-N) of over 100 µM and a TGI (786-0 renal) of over 100 µM. For the same compound, the TGI (NCI/ADR-RES ovarian) was over 100 µM, the TGI (NCI-H226 lung) was over 100 µM and the TGI (OVCAR-5 ovarian) was over 100 µM. For the same compound, the TGI (SNB-75 CNS) was over 100 µM, the TGI (MDA-MB-231 breast) was over 100 µM and the TGI (SF-539 CNS) was over 100 µM. It also gave a TGI (CCRF-CEM leukemia) of over 100 µM.

For CC(C)(Cc1ccccc1)Cc1cc(O)ccc1O, the TGI (MALME-3M melanoma) was 33.2 µM, the TGI (MDA-MB-435) was 49.2 µM and the TGI (OVCAR-4 ovarian) was 91.9 µM. For the same compound, the TGI (COLO 205 colon) was 39.1 µM, the TGI (PC-3 prostate) was over 100 µM and the TGI (T-47D breast) was 23.1 µM. It also gave a TGI (CAKI-1 renal) of 35.1 µM, a TGI (A498 renal) of 47.6 µM and a TGI (LOX IMVI melanoma) of 26.8 µM. It also gave a TGI (NCI-H522 lung) of 17.1 µM, a TGI (OVCAR-3 ovarian) of 25.3 µM and a TGI (SN12C renal) of 41.3 µM. For the same compound, the TGI (RXF 393 renal) was 28.9 µM, the TGI (DU-145 prostate) was over 100 µM and the TGI (OVCAR-8 ovarian) was 40.7 µM. It also gave a TGI (NCI-H460 lung) of 37.4 µM, a TGI (HCC-2998 colon) of 39.1 µM and a TGI (MOLT-4 leukemia) of 49.5 µM. It also gave a TGI (SF-295 CNS) of 73.5 µM, a TGI (UO-31 renal) of 26.3 µM and a TGI (HOP-92 NSCLC) of 36.5 µM. The TGI (SNB-19 CNS) was 48.7 µM, the TGI (IGROV1 ovarian) was over 100 µM and the TGI (SR leukemia) was 27.7 µM. The TGI (HOP-62 NSCLC) was 64.3 µM, the TGI (UACC-62 melanoma) was 61.8 µM and the TGI (U251 CNS) was 32.2 µM. The TGI (SW-620 colon) was 49.6 µM, the TGI (NCI-H23 lung) was 38.7 µM and the TGI (HCT-15 colon) was 39.8 µM. For the same compound, the TGI (K-562 leukemia) was 44.2 µM, the TGI (SK-MEL-28 melanoma) was 47.2 µM and the TGI (EKVX NSCLC) was 65.8 µM. It also gave a TGI (ACHN renal) of 66.1 µM, a TGI (UACC-257 melanoma) of 29.5 µM and a TGI (SF-268 CNS) of 35.7 µM. For the same compound, the TGI (M14 melanoma) was 37.4 µM, the TGI (HCT-116 colon) was 31.6 µM and the TGI (KM12 colon) was 32.1 µM. The TGI (HL-60(TB) leukemia) was 4.8 µM, the TGI (A549 NSCLC) was over 100 µM and the TGI (TK-10 renal) was 95.9 µM. It also gave a TGI (MCF7 breast) of 86.5 µM, a TGI (BT-549 breast) of 74.1 µM and a TGI (HT29 colon) of 48.5 µM. The TGI (MDA-N) was 56.6 µM, the TGI (SK-OV-3 ovarian) was 71 µM and the TGI (786-0 renal) was 29 µM. It also gave a TGI (NCI/ADR-RES ovarian) of 42.9 µM, a TGI (NCI-H226 lung) of 97.8 µM and a TGI (OVCAR-5 ovarian) of 88.8 µM. The TGI (SNB-75 CNS) was 68.1 µM, the TGI (MDA-MB-231 breast) was 39.2 µM and the TGI (SF-539 CNS) was 27.1 µM. It also gave a TGI (CCRF-CEM leukemia) of 36.7 µM.
